Results: PubChem BioAssay AID330 (DTP/NCI, 2004)
Several values for one entry are separate records, joined by “and”; a condition that tells them apart may be missing. Identical values can stand only once. Inconclusive results and toxic doses are left out.

Tested on: P388 leukemia ip, CD2F1 mice, survival T/C
Assay: NCI In Vivo Anticancer Drug Screen. Data for tumor model P388 Leukemia (intraperitoneal) in CD2F1 (CDF1) mice
Conditions: endpoint: median survival time, higher = longer survival
How it was run: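 Mice carrying the transplanted tumor received test compound or vehicle. Survival was recorded in each group, and the value is the treated-group measurement divided by that of the vehicle-treated control group.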

[1] = dose: 100.0 mg/kg/injection, schedule: Q01DX009 (ip), vehicle: saline with Tween-80
[2] = dose: 200.0 mg/kg/injection, schedule: Q01DX009 (ip), vehicle: saline with Tween-80
[3] = dose: 50.0 mg/kg/injection, schedule: Q01DX009 (ip), vehicle: Klucel (hydroxypropylcellulose) (HPC)
[4] = dose: 100.0 mg/kg/injection, schedule: Q01DX009 (ip), vehicle: Klucel (hydroxypropylcellulose) (HPC)
[5] = dose: 50.0 mg/kg/injection, schedule: Q01DX005 (ip), vehicle: saline with Tween-80
[6] = dose: 60.0 mg/kg/injection, schedule: Q01DX005 (ip), vehicle: Klucel (hydroxypropylcellulose) (HPC)
[7] = dose: 120.0 mg/kg/injection, schedule: Q01DX005 (ip), vehicle: Klucel (hydroxypropylcellulose) (HPC)
[8] = dose: 240.0 mg/kg/injection, schedule: Q01DX005 (ip), vehicle: Klucel (hydroxypropylcellulose) (HPC)
[9] = dose: 50.0 mg/kg/injection, schedule: Q01DX009 (ip), vehicle: saline with Tween-80
[10] = dose: 100.0 mg/kg/injection, schedule: Q01DX005 (ip), vehicle: saline with Tween-80
[11] = dose: 200.0 mg/kg/injection, schedule: Q01DX005 (ip), vehicle: saline with Tween-80
[12] = dose: 50.0 mg/kg/injection, schedule: Q01DX005 (ip), vehicle: Klucel (hydroxypropylcellulose) (HPC)

With Cc1c[n+]([O-])cc(=O)[nH]1 the T/C [1] was 100 % of control, the T/C [2] was 100 % of control and the T/C (dose: 400.0 mg/kg/injection, schedule: Q01DX009 (ip), vehicle: saline with Tween-80) was 100 % of control.
For NC1=C(O)C(=O)C(c2ccccc2O)O1 (stereo unspecified), the T/C (dose: 30.0 mg/kg/injection, schedule: Q01DX005 (ip), vehicle: suspension in saline) was 104 % of control, the T/C (dose: 60.0 mg/kg/injection, schedule: Q01DX005 (ip), vehicle: suspension in saline) was 103 % of control and the T/C (dose: 120.0 mg/kg/injection, schedule: Q01DX005 (ip), vehicle: suspension in saline) was 89 % of control and 97 % of control. The T/C (dose: 240.0 mg/kg/injection, schedule: Q01DX005 (ip), vehicle: suspension in saline) was 88 % of control.
With O=C(O)C(=O)O.O=C(O)C(=O)O.OO.OO.[Nb] the T/C (dose: 12.5 mg/kg/injection, schedule: Q01DX009 (ip), vehicle: saline) was 98 % of control.
In the case of CN(C(=O)c1ccc(N)cc1)C1CCN(C2CCCCC2)C1 (stereo unspecified), the T/C [3] was 103 % of control and the T/C [4] was 101 % of control.
For N#CCc1ccc(N(CCO)CCO)cc1, the T/C (dose: 12.5 mg/kg/injection, schedule: Q01DX005 (ip), vehicle: saline with Tween-80) was 102 % of control, the T/C (dose: 25.0 mg/kg/injection, schedule: Q01DX005 (ip), vehicle: saline with Tween-80) was 101 % of control and the T/C [5] was 101 % of control and 104 % of control.
For O=C(NC(O)C(=O)O)c1ccc(Cl)cc1 (stereo unspecified), the T/C (dose: 60.0 mg/kg/injection, schedule: Q01DX005 (ip), vehicle: saline with Tween-80) was 97 % of control, the T/C (dose: 120.0 mg/kg/injection, schedule: Q01DX005 (ip), vehicle: saline with Tween-80) was 95 % of control and the T/C (dose: 240.0 mg/kg/injection, schedule: Q01DX005 (ip), vehicle: saline with Tween-80) was 97 % of control.
For CCCCCC(=O)O[C@H]1CC[C@@H]2[C@H]1[C@@H]1CC[C@H]3O[C@]31C2(C)C, the T/C [6] was 111 % of control, the T/C [7] was 111 % of control and the T/C [8] was 121 % of control.
CCCCCCCC[N+](C)(C)Cc1ccc(Oc2ccc(C[N+](C)(C)CCCCCCCC)cc2)cc1 was tested, and the T/C (dose: 6.25 mg/kg/injection, schedule: Q04DX003 (ip), vehicle: saline) was 108 % of control, the T/C (dose: 12.5 mg/kg/injection, schedule: Q04DX003 (ip), vehicle: saline) was 110 % of control and the T/C (dose: 25.0 mg/kg/injection, schedule: Q04DX003 (ip), vehicle: saline) was 110 % of control.
For ClCCN(CCN(CCCl)c1cccc2ccccc12)c1cccc2ccccc12, the T/C (dose: 50.0 mg/kg/injection, schedule: Q04DX003 (ip), vehicle: Klucel (hydroxypropylcellulose) (HPC)) was 104 % of control, the T/C (dose: 100.0 mg/kg/injection, schedule: Q04DX003 (ip), vehicle: Klucel (hydroxypropylcellulose) (HPC)) was 103 % of control and the T/C (dose: 200.0 mg/kg/injection, schedule: Q04DX003 (ip), vehicle: Klucel (hydroxypropylcellulose) (HPC)) was 107 % of control.
For c1cc(-c2nnc3ccccn23)c2c(-c3nnc4ccccn34)cccc2c1, the T/C [9] was 100 % of control, the T/C [1] was 97 % of control and the T/C [2] was 97 % of control.
CCOC(=O)CC(=O)Nc1cc2ccc(OC)c(OC)c2cc1C(=O)OCC was tested, and the T/C (dose: 25.0 mg/kg/injection, schedule: Q01DX009 (ip), vehicle: other) was 88 % of control, the T/C (dose: 50.0 mg/kg/injection, schedule: Q01DX009 (ip), vehicle: other) was 88 % of control and the T/C (dose: 100.0 mg/kg/injection, schedule: Q01DX009 (ip), vehicle: other) was 96 % of control. The T/C (dose: 200.0 mg/kg/injection, schedule: Q01DX009 (ip), vehicle: other) was 87 % of control and the T/C (dose: 400.0 mg/kg/injection, schedule: Q01DX009 (ip), vehicle: other) was 105 % of control.
With CN(Cc1nc(-c2ccccc2)no1)c1nc(-c2ccccc2)no1 the T/C (dose: 100.0 mg/kg/injection, schedule: Q01DX001 (ip), vehicle: Klucel (hydroxypropylcellulose) (HPC)) was 97 % of control, the T/C (dose: 200.0 mg/kg/injection, schedule: Q01DX001 (ip), vehicle: Klucel (hydroxypropylcellulose) (HPC)) was 109 % of control and the T/C (dose: 400.0 mg/kg/injection, schedule: Q01DX001 (ip), vehicle: Klucel (hydroxypropylcellulose) (HPC)) was 95 % of control.
With CC1(C)Nc2ccccc2C(c2ccccc2)=NC1=O the T/C [6] was 101 % of control and 102 % of control, the T/C [7] was 105 % of control and 98 % of control and the T/C [8] was 104 % of control and 91 % of control.
With Cn1nnnc1NNc1nnnn1C the T/C [5] was 99 % of control, the T/C [10] was 99 % of control and the T/C [11] was 99 % of control.
C=CCNCCC1CCCCCC1 was tested, and the T/C [12] was 102 % of control.
With COc1ccc2c(c1)Oc1c(Cl)c3c(c(Cl)c1=N2)Oc1cc(OC)ccc1N=3 the T/C (dose: 100.0 mg/kg/injection, schedule: Q01DX001 (ip), vehicle: saline with Tween-80) was 89 % of control, the T/C (dose: 200.0 mg/kg/injection, schedule: Q01DX001 (ip), vehicle: saline with Tween-80) was 89 % of control and the T/C (dose: 400.0 mg/kg/injection, schedule: Q01DX001 (ip), vehicle: saline with Tween-80) was 115 % of control.
With NCCn1c(-c2ccccc2)nc2ccccc2c1=O the T/C [12] was 100 % of control, the T/C (dose: 100.0 mg/kg/injection, schedule: Q01DX005 (ip), vehicle: Klucel (hydroxypropylcellulose) (HPC)) was 97 % of control and the T/C (dose: 200.0 mg/kg/injection, schedule: Q01DX005 (ip), vehicle: Klucel (hydroxypropylcellulose) (HPC)) was 109 % of control.
In the case of O=C1C(CCl)=C(c2ccccc2)S(=O)(=O)c2ccccc21, the T/C [5] was 109 % of control, the T/C [10] was 114 % of control and the T/C [11] was 114 % of control.
C=CCOc1cc2c(cc1C(C)c1ccc(OC)cc1)OCO2 (stereo unspecified) was tested, and the T/C (dose: 25.0 mg/kg/injection, schedule: Q01DX005 (ip), vehicle: Klucel (hydroxypropylcellulose) (HPC)) was 104 % of control and 116 % of control, the T/C [10] was 100 % of control and 109 % of control and the T/C (dose: 200.0 mg/kg/injection, schedule: Q01DX005 (ip), vehicle: Klucel + Tween-80) was 202 % of control. The T/C [11] was 106 % of control and 112 % of control, the T/C (dose: 500.0 mg/kg/injection, schedule: Q01DX001 (ip), vehicle: saline with Tween-80) was 96 % of control and the T/C (dose: 800.0 mg/kg/injection, schedule: Q01DX005 (ip), vehicle: saline with Tween-80) was 184 % of control. For the same compound, the T/C (dose: 1000.0 mg/kg/injection, schedule: Q01DX001 (ip), vehicle: saline with Tween-80) was 122 % of control.
Cc1ccc(NC(=O)C(F)(F)F)cc1 was tested, and the T/C [9] was 113 % of control, the T/C [1] was 108 % of control and the T/C [2] was 108 % of control.
For CC12OC1C(=O)C=CC2=O (stereo unspecified), the T/C (dose: 5.0 mg/kg/injection, schedule: Q04DX002 (ip), vehicle: saline with Tween-80) was 111 % of control.
CCCSCCC(C)(N)C(=O)O (stereo unspecified) was tested, and the T/C (dose: 25.0 mg/kg/injection, schedule: Q01DX009 (ip), vehicle: Klucel (hydroxypropylcellulose) (HPC)) was 98 % of control, the T/C [3] was 91 % of control and the T/C [4] was 107 % of control. For the same compound, the T/C (dose: 200.0 mg/kg/injection, schedule: Q01DX009 (ip), vehicle: Klucel (hydroxypropylcellulose) (HPC)) was 96 % of control.
C(=Nc1cnc2ccccc2c1)c1ccnc2ccccc12 was tested, and the T/C (dose: 12.5 mg/kg/injection, schedule: Q01DX009 (ip), vehicle: saline with Tween-80) was 98 % of control, the T/C (dose: 12.5 mg/kg/injection, schedule: Q04DX003 (ip), vehicle: saline with Tween-80) was 107 % of control and the T/C (dose: 25.0 mg/kg/injection, schedule: Q01DX009 (ip), vehicle: saline with Tween-80) was 98 % of control. The T/C (dose: 25.0 mg/kg/injection, schedule: Q04DX003 (ip), vehicle: saline with Tween-80) was 96 % of control, the T/C [9] was 101 % of control and the T/C (dose: 50.0 mg/kg/injection, schedule: Q04DX003 (ip), vehicle: saline with Tween-80) was 114 % of control. The T/C [1] was 96 % of control and the T/C (dose: 100.0 mg/kg/injection, schedule: Q04DX003 (ip), vehicle: saline with Tween-80) was 99 % of control.
With COc1cc(C[C@H](CO)[C@@H](CO)Cc2ccc3c(c2)OCO3)cc(OC)c1OC the T/C (dose: 6.25 mg/kg/injection, schedule: Q04DX002 (ip), vehicle: saline with Tween-80) was 95 % of control, the T/C (dose: 12.5 mg/kg/injection, schedule: Q04DX002 (ip), vehicle: saline with Tween-80) was 102 % of control and the T/C (dose: 25.0 mg/kg/injection, schedule: Q04DX002 (ip), vehicle: saline with Tween-80) was 106 % of control.
In the case of CC(=S)NC(=O)NC(=O)c1ccc(C)cc1, the T/C (dose: 100.0 mg/kg/injection, schedule: Q01DX001 (ip), vehicle: saline) was 102 % of control and 104 % of control, the T/C (dose: 200.0 mg/kg/injection, schedule: Q01DX001 (ip), vehicle: saline) was 112 % of control and 96 % of control and the T/C (dose: 400.0 mg/kg/injection, schedule: Q01DX001 (ip), vehicle: saline) was 112 % of control and 97 % of control.
